In general, Ki refers to the equilibrium dissociation constant of an inhibitor or competing ligand from its target. A lower Ki goes with a stronger hold on the target.

In one series the test system is CYP 2C19. The note with it: cited from earlier work.
Details of series [1]: method as in ref WuXi. The note with it: WuXi's Acceptance Range For Positive Controls; ref WuXi; cited from earlier work.
The target in a further series is T1, 5-HT4 receptor (Homo sapiens, UniProt Q13639).
T1 construct: expressed in transfected cells; host or cells: HeLa
T1 sequence (Q13639 whole entry): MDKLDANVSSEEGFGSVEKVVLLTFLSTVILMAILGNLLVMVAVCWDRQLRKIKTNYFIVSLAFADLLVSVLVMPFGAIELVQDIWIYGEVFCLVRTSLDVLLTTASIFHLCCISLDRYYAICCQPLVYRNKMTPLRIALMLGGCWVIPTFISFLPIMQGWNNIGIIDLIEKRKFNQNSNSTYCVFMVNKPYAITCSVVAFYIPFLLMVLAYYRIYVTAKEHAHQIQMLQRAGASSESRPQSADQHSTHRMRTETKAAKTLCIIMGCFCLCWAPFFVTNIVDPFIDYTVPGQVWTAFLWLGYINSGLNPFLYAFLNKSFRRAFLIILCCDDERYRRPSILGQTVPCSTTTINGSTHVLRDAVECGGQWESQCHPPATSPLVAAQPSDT
The series is described as follows: 5-HT4 radioligand binding. The settings on record: reference compound.

The conditions of series [2]: cited from earlier work.
A further series addresses T2, M3 receptor (Homo sapiens, UniProt P20309).
T2 construct: purchased Perkin Elmer
The series is described as follows: M3 radioligand binding. The note with it: reference compound.

T2 sequence (P20309 whole entry): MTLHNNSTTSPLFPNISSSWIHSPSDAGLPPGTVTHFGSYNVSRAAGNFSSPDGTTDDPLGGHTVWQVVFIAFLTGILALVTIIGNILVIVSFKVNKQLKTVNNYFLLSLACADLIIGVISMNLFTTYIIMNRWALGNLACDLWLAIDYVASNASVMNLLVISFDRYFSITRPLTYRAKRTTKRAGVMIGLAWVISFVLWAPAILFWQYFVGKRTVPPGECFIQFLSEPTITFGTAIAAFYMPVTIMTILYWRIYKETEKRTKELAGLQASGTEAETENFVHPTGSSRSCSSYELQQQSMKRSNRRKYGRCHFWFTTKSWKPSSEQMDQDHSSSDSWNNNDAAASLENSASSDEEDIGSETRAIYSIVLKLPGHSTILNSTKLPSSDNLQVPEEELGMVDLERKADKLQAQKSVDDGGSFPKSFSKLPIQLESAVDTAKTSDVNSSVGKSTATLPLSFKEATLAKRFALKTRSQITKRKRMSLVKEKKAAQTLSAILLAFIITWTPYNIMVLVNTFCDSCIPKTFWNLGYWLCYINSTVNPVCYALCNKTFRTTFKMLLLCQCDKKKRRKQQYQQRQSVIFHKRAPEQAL

`CCC1(c2ccccc2)NC(=O)N(Cc2ccccc2)C1=O` (single isomer, unassigned; (+)) [(+)-N-3-benzylnirvanol]: the “CYP 2C19 IC50 Acceptance Range” value in the series on CYP 2C19 is 0.100~0.350 μM.
Take `NC(=O)N1c2ccccc2C=Cc2ccccc21` [Carbamazepine]: the “Kinetic Solubility pH=7.4” value in series [1] is reported as 43 ± 4 µg/mL.
`Cn1cc(C(=O)OCC2CCN(CCNS(C)(=O)=O)CC2)c2ccccc21` [GR113808] returned a Ki on 5-HT4 receptor of 0.45 nM.
As to `CC(=O)CC(c1ccccc1)c1c(O)c2ccccc2oc1=O` (centres unmarked) [Warfarin], the “Plasma Protein Binding Bound% Human” value in series [2] is on record as greater than 98%.
Turning to `O[Si](CCCN1CCCCC1)(c1ccc(F)cc1)C1CCCCC1` (centres unmarked) [p-F-HHSiD], the Ki on M3 receptor was found to be 34.4 nM.

Source of the values: publication PMC4965013, “Open Source Drug Discovery with the Malaria Box Compound Collection for Neglected Diseases and Beyond” (PLoS Pathogens, 2016).
